Measured values from publication PMC4655838, “Versatility in phospho-dependent molecular recognition of the XRCC1 and XRCC4 DNA-damage scaffolds by aprataxin-family FHA domains” (DNA Repair, 2015).
Read-outs that look alike come from different tables or passages of the source. Square brackets hold non-standard residues; d marks the D form. Peptide text beside a SMILES is read from it. pT = C[C@@H](OP(=O)(O)O)[C@H](N)C(=O)O; pS = N[C@@H](COP(=O)(O)O)C(=O)O

Key:
Type in all cases: binding
[1] = molecular target: T1, wild-type aprataxin FHA domain (Homo sapiens, UniProt Q7Z2E3); test: ITC of wild-type aprataxin FHA domain with XRCC1 and XRCC4 phosphopeptides; details: 22 °C, 50 mM HEPES pH 7.5, 150 mM NaCl, 5 mM β-mercaptoethanol, peptide in syringe, XRCC1 peptides 1 mM into 100 μM protein, XRCC4 peptides 300 μM into 30 μM protein, single-site model, representative of triplicate
T1 construct: aprataxin residues 1–105; GST (pGEX-6P-1) (N, cleaved yes); made in house; host or cells: Escherichia coli BL21 (DE3)
T1 sequence (Q7Z2E3 15-119): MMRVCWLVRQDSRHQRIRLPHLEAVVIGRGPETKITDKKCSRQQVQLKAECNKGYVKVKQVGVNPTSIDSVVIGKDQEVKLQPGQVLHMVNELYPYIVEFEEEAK
From the text: (§1) The genes for aprataxin residues 1–105 and APLF residues 1–106 were amplified using primer sets which incorporated 5′ BamHI and 3′ XhoI sites. PCR products and pGEX-6P-1 vector were digested with BamHI and XhoI and religated. All point mutations were generated using a QuickChange Site-Directed Mutagenesis Kit (Stratagene) following the manufacturer's recommended protocol.
(§2) For expression, the pGEX-6P-1/aprataxin-FHA constructs were transformed into Escherichia coli strain BL21 (DE3) and the pGEX-6P-1/APLF-FHA constructs transformed into the strain Rosetta2 (DE3). Cells were grown in LB at 37 °C to an A600 of 0.5, induced with 0.4 mM isopropyl 1-thio-β-D-galactopyranoside and incubated at 18 °C for a further 16 h before harvesting. Cells were lysed by sonication and clarified by centrifugation (20,000 × g × 30 min). The supernatant was applied to a glutathione-4B resin (Amersham) and cleaved from the resin with rhinovirus 3C protease. Proteins were purified further by gel-filtration chromatography on a Superdex 75 matrix in 20 mM Tris pH 7.5, 150 mM NaCl, 5 mM DTT. Selenomethionine-labelled APLF L91 M protein was expressed in Rosetta2 (DE3) cells cultured in SelenoMet base media and nutrients supplemented with seleno-methionine solution (Molecular Dimensions Ltd.) and purified as the wild-type protein.
(§3) Phosphopeptides based on the XRCC1 sequence 515-YAGSTDENTDSEEHQ-529 and the XRCC4 sequence 229-YDESTDEES-237 were synthesised with amidated C-termini to avoid potential end-effects of a free carboxy-terminus by Dr. W. Mawby (University of Bristol), purified by HPLC and characterised by mass spectrometry. FHA-phosphopeptide binding was quantified by isothermal titration calorimetry using a Microcal Omega VP-ITC calorimeter (MicroCal Inc., Northampton, MA). Protein was dialysed against ITC buffer (50 mM HEPES pH 7.5, 150 mM NaCl, 5 mM β-mercaptoethanol) and peptides were dissolved in the dialysis buffer. Experiments were carried out at 22 °C and involved 30 successive 10 μl injections of peptide solution into a sample cell containing protein solution. Titrations with XRCC1 peptides used peptide at 1 mM and protein at 100 μM and titrations with XRCC4 peptides used peptide at 300 μm and protein at 30 μM. Heats of dilution were subtracted and binding isotherms were plotted and analysed with MicroCal origin version 7.0, assuming a single-site binding model.

[2] = molecular target: T2, R42A Mutant of aprataxin FHA domain (Homo sapiens, UniProt Q7Z2E3, R56A); test: ITC of R42A mutant of aprataxin FHA domain with XRCC1 and XRCC4 phosphopeptides; details: 22 °C, 50 mM HEPES pH 7.5, 150 mM NaCl, 5 mM β-mercaptoethanol, single-site model
T2 construct: aprataxin residues 1–105; GST (pGEX-6P-1) (N, cleaved yes); made in house; host or cells: Escherichia coli BL21 (DE3)
T2 sequence (Q7Z2E3 15-119 R56A): as the sequence (Q7Z2E3 15-119) above, with R42A counted along it
From the text: as §1, §2, §3

[3] = molecular target: T3, aprataxin FHA domain (Homo sapiens, UniProt Q7Z2E3); test: NMR (1H-SOFAST-HMQC) titrations of aprataxin FHA domain with XRCC1 phosphopeptides; details: NMR titration, 22 °C
T3 construct: aprataxin residues 1–105; GST (pGEX-6P-1) (N, cleaved yes); made in house; host or cells: Escherichia coli BL21 (DE3)
T3 sequence (Q7Z2E3 15-119): as the sequence (Q7Z2E3 15-119) above
Description: NMR experiments were carried out at 22 °C on Bruker Avance II+ 600 MHz and Avance III 700 MHz spectrometers, each equipped with a cryogenic triple-resonance probe. Protein and peptides were prepared in NMR buffer (20 mM Na Acetate pH 5.8, 50 mM NaCl, 2 mM DTT). Three-dimensional HNCA, HNCO, HNCACB and CBCA(CO)NH experiments were performed to obtain backbone assignments. NMR titration experiments were carried out by adding the unlabelled XRCC1 peptides to ^15N-labeled aprataxin FHA domain. The initial protein concentration was 92 μM and volumes of 2 mM stock solution of peptide were added until the protein:peptide ratio was 1:4. ^1H-SOFAST-HMQC [36] spectra were measured after each titration step. All spectra were processed using nmrPipe, and analysed using CARA/NEASY [38]. The weighted chemical shift change (in ppm units) of each amide proton (ΔδHN) and nitrogen (ΔδN) was calculated according to the equation: Δδtotal = [(ΔδHNWHN)^2 + (ΔδNWN)^2]^1/2 with WHN = 1 and WN = 0.154 [39]. Weighted chemical shifts for residues D37, V45, Q46, V61 and V63 were plotted against peptide concentration to determine individual Kds and averaged to determine the apparent Kd.

[4] = molecular target: T4, K38A Mutant of aprataxin FHA domain (Homo sapiens, UniProt Q7Z2E3, K52A); test: ITC of K38A mutant of aprataxin FHA domain with XRCC1 and XRCC4 phosphopeptides; details: 22 °C, 50 mM HEPES pH 7.5, 150 mM NaCl, 5 mM β-mercaptoethanol, single-site model
T4 construct: aprataxin residues 1–105; GST (pGEX-6P-1) (N, cleaved yes); made in house; host or cells: Escherichia coli BL21 (DE3)
T4 sequence (Q7Z2E3 15-119 K52A): as the sequence (Q7Z2E3 15-119) above, with K38A counted along it
From the text: as §1, §2, §3

[5] = molecular target: T5, wild-type APLF FHA domain (Homo sapiens, UniProt Q8IW19); test: ITC of wild-type APLF FHA domain with XRCC1 and XRCC4 phosphopeptides; details: 22 °C, 50 mM HEPES pH 7.5, 150 mM NaCl, 5 mM β-mercaptoethanol, peptide in syringe, XRCC1 peptides 1 mM into 100 μM protein, XRCC4 peptides 300 μM into 30 μM protein, single-site model, representative of triplicate
T5 construct: APLF residues 1–106; GST (pGEX-6P-1) (N, cleaved yes); made in house; host or cells: Escherichia coli Rosetta2 (DE3)
T5 sequence (Q8IW19 1-106): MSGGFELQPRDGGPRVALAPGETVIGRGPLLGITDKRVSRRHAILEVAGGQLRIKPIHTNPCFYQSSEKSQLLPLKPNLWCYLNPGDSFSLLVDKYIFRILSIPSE
From the text: as §1
For expression, the pGEX-6P-1/aprataxin-FHA constructs were transformed into Escherichia coli strain BL21 (DE3) and the pGEX-6P-1/APLF-FHA constructs transformed into the strain Rosetta2 (DE3). Cells were grown in LB at 37 °C to an A600 of 0.5, induced with 0.4 mM isopropyl 1-thio-β-D-galactopyranoside and incubated at 18 °C for a further 16 h before harvesting. […]
Phosphopeptides based on the XRCC1 sequence 515-YAGSTDENTDSEEHQ-529 and the XRCC4 sequence 229-YDESTDEES-237 were synthesised with amidated C-termini to avoid potential end-effects of a free carboxy-terminus by Dr. W. Mawby (University of Bristol), purified by HPLC and characterised by mass spectrometry. FHA-phosphopeptide binding was quantified by isothermal titration calorimetry using a Microcal Omega VP-ITC calorimeter (MicroCal Inc., Northampton, MA). […] Heats of dilution were subtracted and binding isotherms were plotted and analysed with MicroCal origin version 7.0, assuming a single-site binding model.

[6] = 20 mM Na Acetate pH 5.8, 50 mM NaCl, 2 mM DTT, 92 µM 15N aprataxin FHA, 2 mM peptide stock, read-out: Kd from weighted chemical shift of residue Asp37
[7] = pH 5.8, 92 µM aprataxin FHA, read-out: Kd from weighted chemical shift of residue Gln46
[8] = pH 5.8, 92 µM aprataxin FHA, read-out: Kd from weighted chemical shift of residue Val45
[9] = pH 5.8, 92 µM aprataxin FHA, read-out: Kd from weighted chemical shift of residue Val61
[10] = pH 5.8, 92 µM aprataxin FHA, read-out: Kd from weighted chemical shift of residue Val63

SMILES | Kd [1] | Kd [2] | Kd [3, 6] | Kd [3, 7] | Kd [3, 8] | Kd [3, 9] | Kd [3, 10] | Kd [4] | Kd [5] | Kd ([3]; pH 5.8, mean of individual Kds of D37, V45, Q46, V61, V63, read-out: Kd, Mean (SEM) over five residues (apparent Kd)) | Kd ([3]; pH 5.8, tighter binders not well defined due to high protein concentration, read-out: overall apparent affinity (Kdapp) estimated from NMR titrations)
C[C@H](NC(=O)[C@@H](N)Cc1ccc(O)cc1)C(=O)NCC(=O)N[C@@H](COP(=O)(O)O)C(=O)N[C@H](C(=O)N[C@@H](CC(=O)O)C(=O)N[C@@H](CCC(=O)O)C(=O)N[C@@H](CC(N)=O)C(=O)N[C@H](C(=O)N[C@@H](CC(=O)O)C(=O)N[C@@H](CO)C(=O)N[C@@H](CCC(=O)O)C(=O)N[C@@H](CCC(=O)O)C(=O)N[C@@H](Cc1c[nH]cn1)C(=O)N[C@@H](CCC(N)=O)C(N)=O)[C@@H](C)O)[C@@H](C)OP(=O)(O)O [YAGpSpTDENTDSEEHQ] (HELM PEPTIDE1{Y.A.G.[O=C([C@H](COP(=O)(O)O)N[*:1])[*:2]].[C[C@@H](OP(=O)(O)O)[C@H](N[*:1])C(=O)[*:2]].D.E.N.T.D.S.E.E.H.Q.[am]}$$$$V2.0) | 1500 ± 60 nM | 53200 ± 5800 nM | 2000 nM | 1700 nM | 2500 nM | 1600 nM | 2100 nM | 12800 ± 700 nM |  |  | 
C[C@H](NC(=O)[C@@H](N)Cc1ccc(O)cc1)C(=O)NCC(=O)N[C@@H](COP(=O)(O)O)C(=O)N[C@H](C(=O)N[C@@H](CC(=O)O)C(=O)N[C@@H](CCC(=O)O)C(=O)N[C@@H](CC(N)=O)C(=O)N[C@H](C(=O)N[C@@H](CC(=O)O)C(=O)N[C@@H](CO)C(=O)N[C@@H](CCC(=O)O)C(=O)N[C@@H](CCC(=O)O)C(=O)N[C@@H](Cc1c[nH]cn1)C(=O)N[C@@H](CCC(N)=O)C(N)=O)[C@@H](C)OP(=O)(O)O)[C@@H](C)OP(=O)(O)O [YAGpSpTDENpTDSEEHQ] (H-YAG[pS][pT]DEN[pT]DSEEHQ-NH2) | 500 ± 50 nM | 28700 ± 1900 nM | 100 nM | 100 nM | 600 nM | 100 nM | 500 nM | 4400 ± 300 nM | 11000 ± 500 nM | 300 nM | < 1000 nM
C[C@H](NC(=O)[C@@H](N)Cc1ccc(O)cc1)C(=O)NCC(=O)N[C@@H](COP(=O)(O)O)C(=O)N[C@H](C(=O)N[C@@H](CC(=O)O)C(=O)N[C@@H](CCC(=O)O)C(=O)N[C@@H](CC(N)=O)C(=O)N[C@H](C(=O)N[C@@H](CC(=O)O)C(=O)N[C@@H](COP(=O)(O)O)C(=O)N[C@@H](CCC(=O)O)C(=O)N[C@@H](CCC(=O)O)C(=O)N[C@@H](Cc1c[nH]cn1)C(=O)N[C@@H](CCC(N)=O)C(N)=O)[C@@H](C)OP(=O)(O)O)[C@@H](C)OP(=O)(O)O [YAGpSpTDENpTDpSEEHQ] (H-YAG[pS][pT]DEN[pT]D[pS]EEHQ-NH2) | 870 ± 50 nM |  |  |  |  |  |  |  | 11000 ± 300 nM |  | 
